Each cell line was assayed with CC(C)N(CCCNC(=O)Nc1ccc(C(C)(C)C)cc1)C[C@H]1O[C@@H](n2ccc3c(N)ncnc32)[C@H](O)[C@@H]1O + NC(=O)Nc1cc(-c2cccc(F)c2)sc1C(=O)N[C@H]1CCCNC1 [AZD7762] (partner 0.2 µM) (assay: relative viability (nuclei count vs DMSO), 5 days (fraction); higher = more cells survive). Settings: first compound 0.08 µM.
In short: (§1)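 Five library-drug doses in √10 steps were combined with a fixed anchor-drug dose, or a single drug was given alone, by pin tool to lung cancer cell lines in 1536-well plates the day after seeding. Nuclei were stained and counted after 5 days. Relative viability is the nuclei count in treated wells over that in vehicle wells, taken as the median of duplicate plates.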
In the case of NCI-H2342, the relative viability was 0.454. Cell Line PC-14 has a relative viability of 0.321. NCI-H1703 was tested, and the relative viability was 0.145. NCI-H1993 gave a relative viability of 0.659. PC-3 [JPC-3] showed a relative viability of 0.759. With LCLC-103H the relative viability was 0.745. For NCI-H647, the relative viability was 0.457. Work on EMC-BAC-2 yielded a relative viability of 1.08. For NCI-H2087, the relative viability was 1.31. HCC-366 gave a relative viability of 0.208. Cell Line NCI-H1666 has a relative viability of 0.924. In the case of NCI-H650, the relative viability was 1.07. Cell Line NCI-H2126 has a relative viability of 0.913. Work on NCI-H1648 yielded a relative viability of 0.656. H3255 gave a relative viability of 0.922. Cell Line LOU-NH91 has a relative viability of 0.751. Cell Line ChaGo-K-1 has a relative viability of 0.881. Work on NCI-H2170 yielded a relative viability of 0.934. With NCI-H3122 the relative viability was 0.967. HOP-62 was tested, and the relative viability was 0.681. In the case of HCC-44, the relative viability was 1. With NCI-H522 the relative viability was 0.891. SW 900 was tested, and the relative viability was 0.718. In the case of CAL-12T, the relative viability was 0.572.

Same assay, conditions: first compound 0.253 µM
Work on NCI-H2342 yielded a relative viability of 0.535. PC-14 showed a relative viability of 0.364. Work on PC-3 [JPC-3] yielded a relative viability of 0.81. LCLC-103H showed a relative viability of 0.805. For NCI-H647, the relative viability was 0.523. For EMC-BAC-2, the relative viability was 1.1. With NCI-H2087 the relative viability was 1.26. For HCC-366, the relative viability was 0.237. NCI-H1666 gave a relative viability of 0.898. With NCI-H650 the relative viability was 0.956. With LK-2 the relative viability was 0.332. Work on NCI-H2126 yielded a relative viability of 1.01. With NCI-H1648 the relative viability was 0.812. In the case of H3255, the relative viability was 0.864. In the case of LOU-NH91, the relative viability was 0.697. ChaGo-K-1 showed a relative viability of 0.936. Cell Line NCI-H2170 has a relative viability of 0.79. Cell Line NCI-H3122 has a relative viability of 1.03. HOP-62 showed a relative viability of 0.51. Cell Line HCC-44 has a relative viability of 1.1. Cell Line NCI-H522 has a relative viability of 0.794. Work on SW 900 yielded a relative viability of 0.529. CAL-12T showed a relative viability of 0.617.

Same assay, conditions: first compound 0.8 µM
NCI-H2342 gave a relative viability of 0.455. PC-14 was tested, and the relative viability was 0.401. For NCI-H1703, the relative viability was 0.137. Cell Line NCI-H1993 has a relative viability of 0.941. LCLC-103H gave a relative viability of 0.686. In the case of NCI-H647, the relative viability was 0.509. EMC-BAC-2 gave a relative viability of 1.08. With NCI-H2087 the relative viability was 1.51. HCC-366 was tested, and the relative viability was 0.277. NCI-H1666 showed a relative viability of 0.758. NCI-H650 showed a relative viability of 0.878. In the case of LK-2, the relative viability was 0.628. For NCI-H2126, the relative viability was 0.956. Cell Line NCI-H1648 has a relative viability of 0.525. Work on H3255 yielded a relative viability of 0.827. ChaGo-K-1 gave a relative viability of 0.858. NCI-H2170 was tested, and the relative viability was 0.66. With NCI-H3122 the relative viability was 1.02. For HOP-62, the relative viability was 0.517. HCC-44 was tested, and the relative viability was 0.897. NCI-H522 was tested, and the relative viability was 0.806. Work on CAL-12T yielded a relative viability of 0.665.

Same assay, conditions: first compound 2.53 µM
With NCI-H2342 the relative viability was 0.505. PC-14 was tested, and the relative viability was 0.274. Work on NCI-H1703 yielded a relative viability of 0.105. For NCI-H1993, the relative viability was 0.777. For PC-3 [JPC-3], the relative viability was 0.794. LCLC-103H was tested, and the relative viability was 0.701. NCI-H647 showed a relative viability of 0.366. Cell Line EMC-BAC-2 has a relative viability of 1.03. NCI-H2087 gave a relative viability of 1.38. HCC-366 gave a relative viability of 0.104. NCI-H1666 gave a relative viability of 0.844. In the case of NCI-H650, the relative viability was 0.87. LK-2 was tested, and the relative viability was 0.428. NCI-H2126 gave a relative viability of 0.988. NCI-H1648 was tested, and the relative viability was 0.645. H3255 was tested, and the relative viability was 0.823. LOU-NH91 was tested, and the relative viability was 0.763. Work on ChaGo-K-1 yielded a relative viability of 0.863. In the case of NCI-H2170, the relative viability was 0.836. In the case of NCI-H3122, the relative viability was 0.907. HOP-62 gave a relative viability of 0.777. With HCC-44 the relative viability was 1.04. Cell Line NCI-H522 has a relative viability of 0.785. For SW 900, the relative viability was 0.564. CAL-12T gave a relative viability of 0.668.

Same assay, conditions: first compound 8 µM
With NCI-H2342 the relative viability was 0.397. Cell Line PC-14 has a relative viability of 0.287. Work on NCI-H1703 yielded a relative viability of 0.114. NCI-H1993 gave a relative viability of 0.673. In the case of PC-3 [JPC-3], the relative viability was 0.872. Cell Line LCLC-103H has a relative viability of 0.727. NCI-H647 was tested, and the relative viability was 0.414. With EMC-BAC-2 the relative viability was 0.979. With NCI-H2087 the relative viability was 1.29. Cell Line HCC-366 has a relative viability of 0.249. NCI-H1666 showed a relative viability of 0.773. In the case of NCI-H650, the relative viability was 1.04. With LK-2 the relative viability was 0.322. In the case of NCI-H2126, the relative viability was 0.965. For NCI-H1648, the relative viability was 0.707. Work on H3255 yielded a relative viability of 0.678. In the case of LOU-NH91, the relative viability was 0.767. ChaGo-K-1 was tested, and the relative viability was 0.79. For NCI-H2170, the relative viability was 0.857. NCI-H3122 was tested, and the relative viability was 0.959. For HOP-62, the relative viability was 0.322. HCC-44 was tested, and the relative viability was 0.929. For NCI-H522, the relative viability was 0.886. Work on SW 900 yielded a relative viability of 0.554. Cell Line CAL-12T has a relative viability of 0.565.

These cell lines were tested with CC(C)N(CCCNC(=O)Nc1ccc(C(C)(C)C)cc1)C[C@H]1O[C@@H](n2ccc3c(N)ncnc32)[C@H](O)[C@@H]1O + Nc1ncn([C@H]2C[C@H](O)[C@@H](CO)O2)c(=O)n1 [Decitabine] (partner 2 µM) in the same assay as above. Settings: first compound 0.08 µM.
In short: as §1
Work on NCI-H2342 yielded a relative viability of 0.667. Work on PC-14 yielded a relative viability of 0.191. With NCI-H1650 the relative viability was 0.368. Work on NCI-H2009 yielded a relative viability of 0.476. NCI-H1993 was tested, and the relative viability was 0.482. NCI-H520 gave a relative viability of 0.531. Cell Line PC-3 [JPC-3] has a relative viability of 0.766. Work on LCLC-103H yielded a relative viability of 0.688. With NCI-H647 the relative viability was 0.419. Work on EMC-BAC-2 yielded a relative viability of 0.939. NCI-H2087 showed a relative viability of 0.272. HCC-366 showed a relative viability of 0.359. NCI-H1666 was tested, and the relative viability was 0.722. With NCI-H650 the relative viability was 0.338. LK-2 gave a relative viability of 0.308. NCI-H2126 showed a relative viability of 0.568. NCI-H1648 was tested, and the relative viability was 0.494. In the case of SK-MES-1, the relative viability was 0.436. Cell Line H3255 has a relative viability of 0.613. In the case of COR-L23, the relative viability was 0.46. COR-L 105 showed a relative viability of 0.631. LOU-NH91 showed a relative viability of 0.757. Cell Line ChaGo-K-1 has a relative viability of 0.468. Cell Line NCI-H2170 has a relative viability of 0.477. With NCI-H3122 the relative viability was 0.445. With HOP-62 the relative viability was 0.225. For HCC-44, the relative viability was 0.979. A549 was tested, and the relative viability was 0.278. Work on NCI-H522 yielded a relative viability of 0.64. With SW 900 the relative viability was 0.387. For NCI-H2023, the relative viability was 0.256. Work on NCI-H661 yielded a relative viability of 0.521. SW 1573 showed a relative viability of 0.464. With SK-LU-1 the relative viability was 0.626.

Same assay, conditions: first compound 0.253 µM
NCI-H2342 showed a relative viability of 0.649. Cell Line PC-14 has a relative viability of 0.246. For NCI-H1650, the relative viability was 0.482. NCI-H2009 showed a relative viability of 0.418. Cell Line NCI-H520 has a relative viability of 0.469.

— the supplement of paper PMC10307832
